Measurements as given in ChEMBL document CHEMBL5223147, “Discovery of a potent and subtype-selective TYK2 degrader based on an allosteric TYK2 inhibitor” (Bioorg Med Chem Lett, 2023).
Calls of active or inactive are those of the source. No cut-off for these calls is given here.

Key:
Assay type in all cases: cell-based
[1] = target: Tyrosine-protein kinase JAK2 (Homo sapiens) (UniProt O60674); assay: Induction of JAK2 degradation in human Jurkat cells at 1 uM incubated for 6 hrs by Western blot analysis
[2] = target: T1, Tyrosine-protein kinase JAK1 (Homo sapiens, UniProt P23458); assay: Induction of JAK1 degradation in human Jurkat cells at 1 uM incubated for 6 hrs by Western blot analysis
[3] = target: T2, Tyrosine-protein kinase JAK3 (Homo sapiens) (UniProt P52333); assay: Induction of JAK3 degradation in human Jurkat cells at 1 uM incubated for 6 hrs by Western blot analysis
T2 sequence (whole entry): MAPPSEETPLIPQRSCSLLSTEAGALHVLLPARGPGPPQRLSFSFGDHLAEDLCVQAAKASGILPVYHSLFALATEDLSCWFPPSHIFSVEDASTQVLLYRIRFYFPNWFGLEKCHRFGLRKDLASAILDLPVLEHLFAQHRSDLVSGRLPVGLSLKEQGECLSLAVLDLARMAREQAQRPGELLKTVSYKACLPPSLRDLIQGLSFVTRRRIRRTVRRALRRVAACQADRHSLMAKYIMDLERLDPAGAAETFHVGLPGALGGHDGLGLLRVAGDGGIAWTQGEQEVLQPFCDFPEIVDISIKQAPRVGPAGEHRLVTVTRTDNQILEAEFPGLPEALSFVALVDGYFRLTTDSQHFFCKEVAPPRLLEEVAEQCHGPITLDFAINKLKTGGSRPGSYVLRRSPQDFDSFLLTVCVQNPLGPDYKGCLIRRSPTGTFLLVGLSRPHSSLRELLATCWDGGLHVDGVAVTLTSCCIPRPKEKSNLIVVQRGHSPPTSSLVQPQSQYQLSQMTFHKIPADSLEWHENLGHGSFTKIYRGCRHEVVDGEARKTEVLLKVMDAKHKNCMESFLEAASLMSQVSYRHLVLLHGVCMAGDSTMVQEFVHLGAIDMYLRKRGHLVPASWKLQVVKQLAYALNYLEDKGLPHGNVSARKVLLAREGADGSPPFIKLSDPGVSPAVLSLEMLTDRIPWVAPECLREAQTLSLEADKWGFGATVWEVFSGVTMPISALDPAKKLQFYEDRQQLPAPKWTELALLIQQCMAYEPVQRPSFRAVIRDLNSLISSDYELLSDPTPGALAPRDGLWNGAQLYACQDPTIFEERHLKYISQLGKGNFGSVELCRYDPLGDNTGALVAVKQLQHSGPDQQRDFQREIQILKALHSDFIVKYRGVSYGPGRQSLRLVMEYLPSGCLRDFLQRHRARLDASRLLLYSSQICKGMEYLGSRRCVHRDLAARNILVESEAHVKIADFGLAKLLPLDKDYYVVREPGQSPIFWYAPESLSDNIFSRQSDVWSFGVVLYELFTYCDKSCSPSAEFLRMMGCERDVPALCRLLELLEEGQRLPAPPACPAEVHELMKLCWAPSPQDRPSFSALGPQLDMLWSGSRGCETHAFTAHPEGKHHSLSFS

[4] = target: T3, Non-receptor tyrosine-protein kinase TYK2 (Homo sapiens, UniProt P29597); assay: Induction of TYK2 degradation in human Jurkat cells at 1 uM incubated for 24 hrs in presence of 6-(5-fluoropyridin-2-ylamino)-4-(2-methoxy-3-(methylcarbamoyl)phenylamino)-N-methylnicotinamide by Western blot analysis
[5] = target: T3, Non-receptor tyrosine-protein kinase TYK2; assay: Induction of TYK2 degradation in human Jurkat cells at 10 uM incubated for 24 hrs by Western blot analysis
[6] = target: T3, Non-receptor tyrosine-protein kinase TYK2; assay: Induction of TYK2 degradation in human Jurkat cells at 10 uM incubated for 24 hrs by Western blot analysis relative to control
[7] = target: T3, Non-receptor tyrosine-protein kinase TYK2; assay: Induction of TYK2 degradation in human Jurkat cells at 1 uM incubated for 6 hrs by Western blot analysis
[8] = target: T3, Non-receptor tyrosine-protein kinase TYK2; assay: Induction of TYK2 degradation in human Jurkat cells at 1 uM by Western blot analysis; settings: time 3-24 hrs, TDE = time-dependent effect
[9] = target: T3, Non-receptor tyrosine-protein kinase TYK2; assay: Induction of TYK2 degradation in human Jurkat cells assessed as reduction in TYK2 mRNA expression level up to 10 uM incubated for 6 to 24 hrs by quantitative-PCR analysis; settings: time 6-24 hrs
[10] = target: T3, Non-receptor tyrosine-protein kinase TYK2; assay: Induction of TYK2 degradation in human Jurkat cells at 1 to 10 uM pretreated with MG-132 followed by compound treatment for 24 hrs by Western blot analysis; settings: dose 1-10 µM
[11] = target: T3, Non-receptor tyrosine-protein kinase TYK2; assay: Induction of TYK2 degradation in human Jurkat cells incubated for 24 hrs by Western blot analysis
[12] = target: T1, Tyrosine-protein kinase JAK1; assay: Induction of JAK1 degradation in human Jurkat cells at 10 uM incubated for 24 hrs relative to control
[13] = target: T3, Non-receptor tyrosine-protein kinase TYK2; assay: Induction of TYK2 degradation in human Jurkat cells incubated for 24 hrs
[14] = target: T1, Tyrosine-protein kinase JAK1; assay: Induction of JAK1 degradation in human Jurkat cells incubated for 24 hrs
[15] = target: T3, Non-receptor tyrosine-protein kinase TYK2; assay: Induction of TYK2 degradation in human Jurkat cells at 100 nM incubated for 24 hrs relative to control
[16] = target: T1, Tyrosine-protein kinase JAK1; assay: Induction of JAK1 degradation in human Jurkat cells at 1 uM incubated for 24 hrs relative to control
[17] = target: T3, Non-receptor tyrosine-protein kinase TYK2; assay: Induction of TYK2 degradation in human Jurkat cells at 1 uM incubated for 24 hrs relative to control

T3 sequence (P29597 whole entry): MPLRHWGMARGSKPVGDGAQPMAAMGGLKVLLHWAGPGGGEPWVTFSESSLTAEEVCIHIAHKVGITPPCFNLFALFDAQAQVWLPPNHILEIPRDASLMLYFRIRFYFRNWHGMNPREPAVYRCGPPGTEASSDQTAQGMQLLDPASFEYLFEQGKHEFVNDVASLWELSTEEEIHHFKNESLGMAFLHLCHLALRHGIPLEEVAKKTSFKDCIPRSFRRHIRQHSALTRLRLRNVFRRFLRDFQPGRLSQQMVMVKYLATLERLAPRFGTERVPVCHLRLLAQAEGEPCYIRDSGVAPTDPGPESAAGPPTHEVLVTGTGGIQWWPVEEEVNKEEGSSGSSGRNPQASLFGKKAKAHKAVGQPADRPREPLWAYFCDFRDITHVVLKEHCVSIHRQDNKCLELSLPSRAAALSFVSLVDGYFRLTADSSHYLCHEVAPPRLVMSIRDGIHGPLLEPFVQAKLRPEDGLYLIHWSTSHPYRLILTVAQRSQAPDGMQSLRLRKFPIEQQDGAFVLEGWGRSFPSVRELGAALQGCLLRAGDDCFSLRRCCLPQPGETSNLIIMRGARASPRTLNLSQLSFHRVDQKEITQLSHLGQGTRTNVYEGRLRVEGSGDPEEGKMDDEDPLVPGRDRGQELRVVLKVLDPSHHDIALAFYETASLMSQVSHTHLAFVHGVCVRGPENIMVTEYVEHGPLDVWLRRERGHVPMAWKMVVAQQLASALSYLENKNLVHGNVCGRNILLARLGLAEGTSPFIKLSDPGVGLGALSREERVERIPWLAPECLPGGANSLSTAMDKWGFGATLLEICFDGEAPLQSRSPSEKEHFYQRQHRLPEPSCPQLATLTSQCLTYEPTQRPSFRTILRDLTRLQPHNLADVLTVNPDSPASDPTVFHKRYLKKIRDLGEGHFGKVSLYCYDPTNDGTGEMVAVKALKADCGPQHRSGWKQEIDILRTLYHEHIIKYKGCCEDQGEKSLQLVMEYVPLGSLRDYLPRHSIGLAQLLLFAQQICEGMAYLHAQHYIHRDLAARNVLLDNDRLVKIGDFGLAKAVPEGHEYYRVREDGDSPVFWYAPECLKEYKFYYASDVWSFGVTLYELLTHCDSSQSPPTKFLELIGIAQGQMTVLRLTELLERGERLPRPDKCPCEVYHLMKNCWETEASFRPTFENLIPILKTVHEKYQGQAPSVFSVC
Sequence of Tyrosine-protein kinase JAK2 (Homo sapiens) (O60674 whole entry): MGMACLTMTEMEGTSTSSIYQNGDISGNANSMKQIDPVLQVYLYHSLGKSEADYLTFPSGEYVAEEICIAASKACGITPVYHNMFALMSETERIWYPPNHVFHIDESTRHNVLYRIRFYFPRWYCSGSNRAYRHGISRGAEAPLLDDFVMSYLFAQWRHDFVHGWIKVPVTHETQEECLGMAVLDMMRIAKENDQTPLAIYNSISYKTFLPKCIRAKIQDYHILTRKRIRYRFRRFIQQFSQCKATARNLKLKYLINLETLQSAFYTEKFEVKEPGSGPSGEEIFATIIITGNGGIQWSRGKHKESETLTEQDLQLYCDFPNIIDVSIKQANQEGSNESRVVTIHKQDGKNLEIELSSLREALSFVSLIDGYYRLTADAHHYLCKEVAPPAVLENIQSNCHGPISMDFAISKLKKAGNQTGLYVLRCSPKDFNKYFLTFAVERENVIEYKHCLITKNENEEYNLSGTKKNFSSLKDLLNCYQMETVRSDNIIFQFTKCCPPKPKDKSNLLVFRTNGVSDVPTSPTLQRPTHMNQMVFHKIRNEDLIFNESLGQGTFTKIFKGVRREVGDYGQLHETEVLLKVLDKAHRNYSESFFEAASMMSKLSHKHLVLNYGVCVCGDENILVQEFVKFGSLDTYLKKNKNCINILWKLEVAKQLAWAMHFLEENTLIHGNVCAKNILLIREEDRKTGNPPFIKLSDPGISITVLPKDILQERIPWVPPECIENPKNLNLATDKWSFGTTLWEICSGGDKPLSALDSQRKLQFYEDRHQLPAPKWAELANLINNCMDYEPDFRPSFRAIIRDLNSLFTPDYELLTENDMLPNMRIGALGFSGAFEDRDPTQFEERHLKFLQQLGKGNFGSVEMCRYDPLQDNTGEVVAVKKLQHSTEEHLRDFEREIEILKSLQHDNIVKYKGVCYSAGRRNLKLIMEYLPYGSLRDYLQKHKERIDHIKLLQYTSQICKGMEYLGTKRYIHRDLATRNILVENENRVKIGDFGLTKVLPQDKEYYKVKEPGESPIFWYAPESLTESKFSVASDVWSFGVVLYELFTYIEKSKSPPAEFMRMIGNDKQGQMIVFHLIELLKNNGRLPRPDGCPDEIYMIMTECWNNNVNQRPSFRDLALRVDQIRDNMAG
T1 sequence (P23458 whole entry): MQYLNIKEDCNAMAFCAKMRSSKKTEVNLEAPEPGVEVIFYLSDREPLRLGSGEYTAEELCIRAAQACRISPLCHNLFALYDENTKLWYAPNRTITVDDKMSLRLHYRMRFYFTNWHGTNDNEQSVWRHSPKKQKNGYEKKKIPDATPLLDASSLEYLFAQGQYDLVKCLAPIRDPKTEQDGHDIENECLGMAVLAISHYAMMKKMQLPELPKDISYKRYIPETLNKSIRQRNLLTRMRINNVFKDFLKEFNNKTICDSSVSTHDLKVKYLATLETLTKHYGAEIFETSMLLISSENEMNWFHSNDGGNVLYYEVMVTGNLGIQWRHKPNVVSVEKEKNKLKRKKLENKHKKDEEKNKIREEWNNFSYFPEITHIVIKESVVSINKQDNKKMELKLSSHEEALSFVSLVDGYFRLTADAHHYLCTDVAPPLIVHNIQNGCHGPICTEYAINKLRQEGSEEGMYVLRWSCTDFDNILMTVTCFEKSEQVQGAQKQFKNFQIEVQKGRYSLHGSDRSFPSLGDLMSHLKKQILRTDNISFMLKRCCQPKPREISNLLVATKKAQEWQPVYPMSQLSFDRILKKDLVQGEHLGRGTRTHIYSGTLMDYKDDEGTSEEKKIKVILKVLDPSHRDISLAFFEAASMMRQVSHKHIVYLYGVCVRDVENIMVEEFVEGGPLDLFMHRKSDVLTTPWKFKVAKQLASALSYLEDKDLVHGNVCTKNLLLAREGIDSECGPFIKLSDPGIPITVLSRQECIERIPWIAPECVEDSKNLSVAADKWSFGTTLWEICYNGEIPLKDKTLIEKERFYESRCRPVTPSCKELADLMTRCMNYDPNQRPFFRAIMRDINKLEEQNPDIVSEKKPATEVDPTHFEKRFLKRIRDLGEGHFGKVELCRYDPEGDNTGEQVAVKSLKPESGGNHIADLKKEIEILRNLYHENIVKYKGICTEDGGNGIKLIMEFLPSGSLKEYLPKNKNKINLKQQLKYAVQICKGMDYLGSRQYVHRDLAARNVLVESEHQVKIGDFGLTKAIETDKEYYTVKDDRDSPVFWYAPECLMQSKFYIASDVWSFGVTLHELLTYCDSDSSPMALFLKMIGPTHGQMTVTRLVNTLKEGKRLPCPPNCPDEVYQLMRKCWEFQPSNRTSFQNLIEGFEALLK

| Structure (SMILES) | Activity [1] | Activity [2] | Activity [3] | other results |
| --- | --- | --- | --- | --- |
| CNC(=O)c1cnc(Nc2ccc(C(=O)NCCCC(=O)N[C@H](C(=O)N3C[C@H](O)C[C@H]3C(=O)NCc3ccc(-c4scnc4C)cc3)C(C)(C)C)cn2)cc1Nc1cccc(C(=O)NC)c1OC | Active | Active | Active | – |
| Cc1ncsc1-c1ccc(CNC(=O)[C@@H]2C[C@@H](O)CN2C(=O)[C@@H](NC(=O)C2(C#N)CC2)C(C)(C)C)cc1 | – | – | – | Activity [4]: inactive; Activity [5]: Active |
| CNC(=O)c1cnc(Nc2ccc(C(=O)NCCCCCCCCCC(=O)N[C@H](C(=O)N3C[C@H](O)C[C@H]3C(=O)NCc3ccc(-c4scnc4C)cc3)C(C)(C)C)cn2)cc1Nc1cccc(-c2ncn(C)n2)c1OC | Active | – | – | Emax [12]: 25%; DC50 [13]: 14 nM; DC50 [14]: ≥ 10000 nM; Emax [15]: 78% |
| CNC(=O)c1cnc(Nc2ccc(F)cn2)cc1Nc1cccc(C(=O)NC)c1OC | – | – | – | Activity [5]: Active |
| CNC(=O)c1cccc(Nc2cc(Nc3ccc(C(=O)NCCCCCCCCCC(=O)N[C@H](C(=O)N4C[C@H](O)C[C@H]4C(=O)NCc4ccc(-c5scnc5C)cc4)C(C)(C)C)cn3)ncc2C(N)=O)c1OC | – | Active | – | DC50 [13]: 23 nM; DC50 [14]: 1100 nM; Emax [16]: 49%; Emax [17]: 85% |

More lines, main results first:

| Activity [1] | Activity [2] | Activity [3] | Structure (SMILES) | other results |
| --- | --- | --- | --- | --- |
| inactive | inactive | inactive | CNC(=O)c1cnc(Nc2ccc(C(=O)NCCCCCCCCCC(=O)N[C@H](C(=O)N3C[C@H](O)C[C@H]3C(=O)NCc3ccc(-c4scnc4C)cc3)C(C)(C)C)cn2)cc1Nc1cccc(C(=O)NC)c1OC | Emax [6]: 77%; Activity [7]: Active; Activity [8]: Tde; Activity [9]: inactive; Activity [10]: Active; Activity [4]: Active; DC50 [11]: 230 nM |
| inactive | inactive | inactive | CNC(=O)c1cnc(Nc2ccc(C(=O)NCCCCCC(=O)N[C@H](C(=O)N3C[C@H](O)C[C@H]3C(=O)NCc3ccc(-c4scnc4C)cc3)C(C)(C)C)cn2)cc1Nc1cccc(C(=O)NC)c1OC | – |
| inactive | inactive | inactive | CNC(=O)c1cnc(Nc2ccc(C(=O)NCCCCCCCCCCC(=O)N[C@H](C(=O)N3C[C@H](O)C[C@H]3C(=O)NCc3ccc(-c4scnc4C)cc3)C(C)(C)C)cn2)cc1Nc1cccc(C(=O)NC)c1OC | – |
| inactive | inactive | inactive | CNC(=O)c1cnc(Nc2ccc(C(=O)NCCCCCCCCC(=O)N[C@H](C(=O)N3C[C@H](O)C[C@H]3C(=O)NCc3ccc(-c4scnc4C)cc3)C(C)(C)C)cn2)cc1Nc1cccc(C(=O)NC)c1OC | – |
| inactive | inactive | inactive | CNC(=O)c1cnc(Nc2ccc(C(=O)NCCCCCCCCCCCC(=O)N[C@H](C(=O)N3C[C@H](O)C[C@H]3C(=O)NCc3ccc(-c4scnc4C)cc3)C(C)(C)C)cn2)cc1Nc1cccc(C(=O)NC)c1OC | – |
| inactive | inactive | inactive | CNC(=O)c1cnc(Nc2ccc(C(=O)NCCCCCCCC(=O)N[C@H](C(=O)N3C[C@H](O)C[C@H]3C(=O)NCc3ccc(-c4scnc4C)cc3)C(C)(C)C)cn2)cc1Nc1cccc(C(=O)NC)c1OC | – |
